Key:
Assay in all cases: cells
EW-13 = format: functional, cell-based; details: Homo sapiens;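 further: growth inhibition of EW-13 cells, read out with a cell viability assay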
Description: SANGER: Inhibition of human EW-13 cell growth in a cell viability assay.

KNS-42 = format: functional, cell-based, Homo sapiens; details: Homo sapiens, KNS-42;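 further: growth inhibition of KNS-42 cells, read out with a cell viability assay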
Description: SANGER: Inhibition of human KNS-42 cell growth in a cell viability assay.

SBC-1 = format: functional, cell-based; details: Homo sapiens;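 further: cell viability assay measuring growth inhibition of the SBC-1 cell line, IC50 being the concentration that halves growth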
Description: SANGER: Inhibition of human SBC-1 cell growth in a cell viability assay.

NB5 = format: functional, cell-based, Homo sapiens; details: Homo sapiens, NB5;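 further: growth inhibition of NB5 cells, read out as cell viability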
Description: SANGER: Inhibition of human NB5 cell growth in a cell viability assay.

MHH-PREB-1 = format: functional, cell-based; details: Homo sapiens;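 further: cell viability assay measuring inhibition of proliferation of human MHH-PREB-1 cells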
Description: SANGER: Inhibition of human MHH-PREB-1 cell growth in a cell viability assay.

IST-MEL1 = format: functional, cell-based, Homo sapiens; details: Homo sapiens, IST-MEL1;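 further: growth inhibition of the cell line, read out with a cell viability assay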
Description: SANGER: Inhibition of human IST-MEL1 cell growth in a cell viability assay.

NCI-H2126 = format: functional, cell-based, Homo sapiens; details: Homo sapiens, NCI-H2126;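 further: growth inhibition of the cancer cell line, determined with a cell viability readout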
Description: SANGER: Inhibition of human NCI-H2126 cell growth in a cell viability assay.

DEL = format: functional, cell-based; details: Homo sapiens;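 further: growth inhibition of the human DEL cell line, read out with a cell viability assay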
Description: SANGER: Inhibition of human DEL cell growth in a cell viability assay.

LC-2-ad = format: functional, cell-based, Homo sapiens; details: Homo sapiens, LC-2-ad;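 further: growth inhibition of human LC-2-ad cells, read out with a cell viability assay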
Description: SANGER: Inhibition of human LC-2-ad cell growth in a cell viability assay.

NCI-H526 = format: functional, cell-based; details: Homo sapiens;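 further: growth inhibition of the human NCI-H526 cell line, measured by a cell viability assay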
Description: SANGER: Inhibition of human NCI-H526 cell growth in a cell viability assay.

ES8 = format: functional, cell-based, Homo sapiens; details: Homo sapiens, ES8;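 further: growth inhibition of human ES8 cells, read out with a cell viability assay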
Description: SANGER: Inhibition of human ES8 cell growth in a cell viability assay.

KE-37 = format: functional, cell-based; details: Homo sapiens;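 further: growth inhibition of KE-37 cells, read out with a cell viability assay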
DB = format: functional, cell-based; details: Homo sapiens
Description: SANGER: Inhibition of human DB cell growth in a cell viability assay.

ES4 = format: functional, cell-based, Homo sapiens; details: Homo sapiens, ES4;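 further: growth inhibition of human ES4 cells, read out by a cell viability assay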
Description: SANGER: Inhibition of human ES4 cell growth in a cell viability assay.

BB49-HNC = format: functional, cell-based, Homo sapiens; details: Homo sapiens, BB49-HNC;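 further: cell viability assay read-out, reported as inhibition of BB49-HNC cell growth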
Description: SANGER: Inhibition of human BB49-HNC cell growth in a cell viability assay.

ETK-1 = format: functional, cell-based, Homo sapiens; details: Homo sapiens, ETK-1;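 further: growth inhibition of human ETK-1 cells, read out with a cell viability assay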
Description: SANGER: Inhibition of human ETK-1 cell growth in a cell viability assay.

LS-513 = format: functional, cell-based, Homo sapiens; details: Homo sapiens, LS-513
Description: SANGER: Inhibition of human LS-513 cell growth in a cell viability assay.

MEG-01 = format: functional, cell-based; details: Homo sapiens;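 further: growth inhibition of MEG-01 cells, read out by a cell viability assay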
Description: SANGER: Inhibition of human MEG-01 cell growth in a cell viability assay.

LOX IMVI = format: functional, cell-based; details: Homo sapiens
Description: SANGER: Inhibition of human LOXIMVI cell growth in a cell viability assay.

BB30-HNC = format: functional, cell-based, Homo sapiens; details: Homo sapiens, BB30-HNC;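 further: growth inhibition of the cultured cell line, read out by a cell viability assay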
Description: SANGER: Inhibition of human BB30-HNC cell growth in a cell viability assay.

MZ1-PC = format: functional, cell-based, Homo sapiens; details: Homo sapiens, MZ1-PC;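 further: cell viability assay measuring growth inhibition of human MZ1-PC cells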
Description: SANGER: Inhibition of human MZ1-PC cell growth in a cell viability assay.

A498 = format: functional, cell-based, Homo sapiens; details: Homo sapiens, A498;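 further: growth inhibition of human A498 cells, read out with a cell viability assay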
Description: SANGER: Inhibition of human A498 cell growth in a cell viability assay.

| SMILES | IC50 (EW-13) | IC50 (KNS-42) | IC50 (SBC-1) | IC50 (NB5) | IC50 (MHH-PREB-1) | IC50 (IST-MEL1) | IC50 (NCI-H2126) | IC50 (DEL) | IC50 (LC-2-ad) | IC50 (NCI-H526) | IC50 (ES8) | IC50 (KE-37) | IC50 (DB) | IC50 (ES4) | IC50 (BB49-HNC) | IC50 (ETK-1) | IC50 (LS-513) | IC50 (MEG-01) | IC50 (LOX IMVI) | IC50 (MZ1-PC) | other results |
| --- | --- | --- | --- | --- | --- | --- | --- | --- | --- | --- | --- | --- | --- | --- | --- | --- | --- | --- | --- | --- | --- |
| C=C1C(=O)O[C@@H]2C3O[C@]3(C)CC/C=C(\C)CC[C@@H]12 (stereo not given in full) | > 5 µM | > 5 µM | > 5 µM | > 5 µM | > 5 µM | > 5 µM | > 5 µM | > 5 µM | > 5 µM | > 5 µM | > 5 µM | > 5 µM | > 5 µM | > 5 µM | > 5 µM | > 5 µM | > 5 µM | > 5 µM | > 5 µM | > 5 µM | IC50 (BB30-HNC): > 5 µM; IC50 (A498): > 5 µM |
| CC1=C2C[C@H]3[C@@H](CC=C4C[C@@H](O)CC[C@@]43C)[C@@H]2CC[C@]12O[C@@H]1C[C@H](C)CN[C@H]1[C@H]2C [CYCLOPAMINE] | > 16 µM | > 16 µM | > 16 µM | > 16 µM | > 16 µM | > 16 µM | > 16 µM | > 16 µM | > 16 µM | > 16 µM | > 16 µM | > 16 µM | > 16 µM | > 16 µM | > 16 µM | > 16 µM | 11.4 µM | > 16 µM | > 16 µM | > 16 µM | IC50 (BB30-HNC): > 16 µM; IC50 (A498): > 16 µM |
| CS(=O)(=O)CCNCc1ccc(-c2ccc3ncnc(Nc4ccc(OCc5cccc(F)c5)c(Cl)c4)c3c2)o1 [LAPATINIB] | > 2 µM | > 2 µM | > 2 µM | > 2 µM | > 2 µM | > 2 µM | > 2 µM | > 2 µM | > 2 µM | > 2 µM | > 2 µM | > 2 µM | > 2 µM | > 2 µM | > 2 µM | > 2 µM | > 2 µM | > 2 µM | > 2 µM | > 2 µM | IC50 (BB30-HNC): 0.247 µM |
| CCc1nc(N)nc(N)c1-c1ccc(Cl)cc1 [PYRIMETHAMINE] | > 20 µM | > 20 µM | > 20 µM | > 20 µM | > 20 µM | 4.33 µM | > 20 µM | 3.93 µM | > 20 µM | 7.92 µM | 0.897 µM | 10.2 µM | > 20 µM | 3.12 µM | > 20 µM | 4.1 µM | > 20 µM | 11.8 µM | 13 µM | > 20 µM | IC50 (BB30-HNC): > 20 µM; IC50 (A498): > 20 µM |
| O=C(/C=C/c1ccccc1)NC(NC(=S)Nc1cccc2cccnc12)C(Cl)(Cl)Cl (stereo not given) [SALUBRINAL] | > 16 µM | > 16 µM | > 16 µM | > 16 µM | 6.79 µM | > 16 µM | > 16 µM | > 16 µM | > 16 µM | > 16 µM | 8.64 µM | 15.3 µM | > 16 µM | > 16 µM | > 16 µM | > 16 µM | > 16 µM | > 16 µM | > 16 µM | > 16 µM | IC50 (BB30-HNC): > 16 µM; IC50 (A498): > 16 µM |
| CNC(=O)c1cc(Oc2ccc(NC(=O)Nc3ccc(Cl)c(C(F)(F)F)c3)cc2)ccn1 [SORAFENIB] | > 4 µM | > 4 µM | > 4 µM | > 4 µM | > 4 µM | > 4 µM | > 4 µM | > 4 µM | > 4 µM | > 4 µM | > 4 µM | > 4 µM | > 4 µM | > 4 µM | > 4 µM | > 4 µM | > 4 µM | 1.81 µM | > 4 µM | 3.48 µM | IC50 (A498): > 4 µM |
